Laboratory results published in ChEMBL document CHEMBL3228010, “Potential antitumor agents. 29. Quantitative structure-activity relationships for the antileukemic bisquaternary ammonium heterocycles” (J Med Chem, 1979).
Where “and” joins values, the source holds several entries; their conditions need not be identical. Identical values can stand only once.

What was measured:
L1210 [1] = assay: Antitumor activity against mouse L1210 cells […] in ip dosed C3H X DBA2 F1 hybrid mouse on day 0 and dosed at LD10 level once daily on days 1 to 5 assessed as increase in life span relative to control; type: functional
Mus musculus = assay: Toxicity in ip dosed C3H X DBA2 F1 hybrid mouse […] with mouse L1210 cells on day 0 and dosed once daily on days 1 to 5 measured after 50 days; type: organism-based; conditions: in vivo, 1200 h
[2] = Displacement of ethidium from poly[d(G-C)]-poly[d(G-C)] DNA (unknown origin) by fluorimetric method
Bos taurus = organism: Bos taurus; assay: Displacement of ethidium from calf thymus DNA by fluorimetric method
[3] = Lipophilic-hydrophilic balance, Rm of the compound by partition chromatography; type: physicochemical
L1210 [4] = assay: Antitumor activity against mouse L1210 cells […] in ip dosed C3H X DBA2 F1 hybrid mouse on day 0 and dosed once daily on days 1 to 5 assessed as increase in life span relative to control; type: functional
[5] = Displacement of ethidium from poly[d(A)]-poly[d(T)] DNA (unknown origin) by fluorimetric method
[6] = Displacement of ethidium from poly[d(A-T)]-poly[d(A-T)] DNA by fluorimetric method

Compound	log(ILSmax) (L1210 [1])	LD10 (Mus musculus)	C50 [2]	C50 (Bos taurus)	Rm [3]	D40 (L1210 [4])	C50 [5]	C50 [6]
C[n+]1cccc(-c2ccc(NC(=O)c3ccc(C(=O)Nc4ccc(-c5ccc(-c6ccc(-c7ccc[n+](C)c7)cc6)cc5)cc4)cc3)cc2)c1.Cc1ccc(S(=O)(=O)[O-])cc1.Cc1ccc(S(=O)(=O)[O-])cc1	2.1	65 mg/kg	0.37 µM	0.29 µM	-0.75	17.9 mg/kg	0.16 µM	0.22 µM
C[n+]1ccccc1Nc1ccc(NC(=O)c2ccc(C(=O)Nc3ccc(Nc4cccc[n+]4C)cc3)cc2)cc1.Cc1ccc(S(=O)(=O)[O-])cc1.Cc1ccc(S(=O)(=O)[O-])cc1	<1.4	16 mg/kg	8.8 µM	5.6 µM	0.13		0.15 µM	2.8 µM
C[n+]1ccc(Nc2ccc(NC(=O)c3ccc(Nc4cc[n+](C)c5ccc(N)cc45)cc3)cc2N)cc1.[I-].[I-]	2.18	3 mg/kg	1.3 µM	0.71 µM	-0.03	0.7 mg/kg	0.067 µM	0.23 µM
C[n+]1ccc(Nc2ccc(NC(=O)c3ccc(Nc4cc[n+](C)c5ccccc45)cc3N)cc2N)cc1.[I-].[I-]	1.78	18 mg/kg	3.17 µM	1.76 µM	0.08	15 mg/kg	0.12 µM	0.79 µM
C/C(=N\NC(=N)N)c1ccc(C(=O)Nc2ccc(Nc3cc[n+](C)c4ccc(N)cc34)cc2)cc1.Cc1ccc(S(=O)(=O)O)cc1.Cc1ccc(S(=O)(=O)[O-])cc1	2.37	40 mg/kg	0.52 µM	0.4 µM	-0.1	2.6 mg/kg	0.057 µM	0.12 µM
Cc1cc(C(=O)Nc2ccc[n+](C)c2)ccc1NC(=O)c1ccc(C(=O)Nc2ccc(C(=O)Nc3ccc[n+](C)c3)cc2C)cc1.Cc1ccc(S(=O)(=O)[O-])cc1.Cc1ccc(S(=O)(=O)[O-])cc1	1.79	40 mg/kg	16.7 µM	11.7 µM	0.12	27 mg/kg	0.35 µM	6 µM
C[n+]1ccc(Nc2ccc(NC(=O)c3ccc(Nc4cc[n+](C)c5c(N)cccc45)cc3)cc2)cc1.[I-].[I-]	2.48	60 mg/kg	1.43 µM	0.85 µM	-0.1	0.9 mg/kg	0.056 µM	0.2 µM
C[n+]1ccc(Nc2ccc(NC(=O)c3ccc(Nc4cc[n+](C)c5ccccc45)cc3)cc2N)cc1.[I-].[I-]	1.85	8 mg/kg	4.76 µM	2.25 µM	0.24	2.8 mg/kg	0.052 µM	0.43 µM
CC[n+]1cccc(NC(=O)c2ccc(NC(=O)c3ccc(C(=O)Nc4ccc(C(=O)Nc5ccc[n+](CC)c5)cc4)cc3)cc2)c1.Cc1ccc(S(=O)(=O)[O-])cc1.Cc1ccc(S(=O)(=O)[O-])cc1	2.24	33 mg/kg	0.9 µM	0.48 µM	-0.32	9.8 mg/kg	0.11 µM	0.4 µM
CCC[n+]1cccc(NC(=O)c2ccc(NC(=O)c3ccc(C(=O)Nc4ccc(C(=O)Nc5ccc[n+](CCC)c5)cc4)cc3)cc2)c1.Cc1ccc(S(=O)(=O)[O-])cc1.Cc1ccc(S(=O)(=O)[O-])cc1	2.06	27 mg/kg	0.9 µM	0.44 µM	0.13	12.9 mg/kg	0.12 µM	0.39 µM
C[n+]1ccc(Nc2ccc(NC(=O)c3ccc(Nc4cc[n+](C)c5c(Cl)cccc45)cc3)cc2)cc1.Cc1ccc(S(=O)(=O)[O-])cc1.Cc1ccc(S(=O)(=O)[O-])cc1	1.7	55 mg/kg	1.4 µM	1.1 µM	0.51	50 mg/kg	0.038 µM	0.29 µM
COc1cc(NC(=O)c2ccc(C(=O)Nc3ccc(C(=O)Nc4ccc[n+](C)c4)c(OC)c3)cc2)ccc1C(=O)Nc1ccc[n+](C)c1.Cc1ccc(S(=O)(=O)[O-])cc1.Cc1ccc(S(=O)(=O)[O-])cc1	1.78	41 mg/kg	0.35 µM	0.4 µM	0.15	15 mg/kg	0.18 µM	0.3 µM
C[n+]1cccc(NC(=O)c2ccc(NC(=O)C34CCC(C(=O)Nc5ccc(C(=O)Nc6ccc[n+](C)c6)cc5)(CC3)CC4)cc2)c1.Cc1ccc(S(=O)(=O)[O-])cc1.Cc1ccc(S(=O)(=O)[O-])cc1	2	24 mg/kg	11 µM	6.8 µM	0.31	4.3 mg/kg	1.6 µM	5.3 µM
CCCC[n+]1cccc(NC(=O)c2ccc(NC(=O)c3ccc(C(=O)Nc4ccc(C(=O)Nc5ccc[n+](CCCC)c5)cc4)cc3)cc2)c1.Cc1ccc(S(=O)(=O)[O-])cc1.Cc1ccc(S(=O)(=O)[O-])cc1	1.76	58 mg/kg	0.93 µM	0.46 µM	0.51	30 mg/kg	0.14 µM	0.41 µM
C[n+]1cccc(NC(=O)c2ccc(NC(=O)c3ccc(C(=O)Nc4ccc(C(=O)Nc5ccc[n+](C)c5)cc4)cc3)cc2)c1			1.6 µM and 0.91 µM	0.83 µM and 0.42 µM			0.13 µM	0.79 µM and 0.41 µM
C[n+]1cccc(NC(=O)c2ccc(C(=O)Nc3ccc[n+](C)c3)cc2)c1.Cc1ccc(S(=O)(=O)[O-])cc1.Cc1ccc(S(=O)(=O)[O-])cc1	<1.4	5 mg/kg	80 µM	61 µM	0		3.8 µM	63 µM
C[n+]1ccc(Nc2ccc(NC(=O)/C=C/c3ccc(Nc4cc[n+](C)c5ccc(N)cc45)cc3)cc2)cc1.Cc1ccc(S(=O)(=O)[O-])cc1.Cc1ccc(S(=O)(=O)[O-])cc1	2.24	40 mg/kg	0.41 µM	0.46 µM	0.03	1.6 mg/kg		0.09 µM
C[n+]1cccc2ccc(NC(=O)c3ccc(-c4ccc(-c5ccc(-c6ccc(C(=O)Nc7ccc8ccc[n+](C)c8c7)cc6)cc5)cc4)cc3)cc21.Cc1ccc(S(=O)(=O)[O-])cc1.Cc1ccc(S(=O)(=O)[O-])cc1	1.85	52 mg/kg	0.28 µM	0.17 µM	-0.57	20 mg/kg		0.14 µM
CC(=O)Nc1ccc2c(Nc3ccc(NC(=O)c4ccc(Nc5cc[n+](C)cc5)cc4)cc3)cc[n+](C)c2c1.Cc1ccc(S(=O)(=O)[O-])cc1.Cc1ccc(S(=O)(=O)[O-])cc1	2.26	97 mg/kg	0.53 µM	0.34 µM	-0.1	10 mg/kg		0.13 µM
C[n+]1c2ccccc2c(Nc2ccc(NC(=O)Nc3ccc(NC(=N)NC(=N)N)cc3)cc2)c2ccc(N)cc21.Cl.[Cl-]	2.48	200 mg/kg	0.13 µM	0.09 µM	0.46	8 mg/kg		0.06 µM
C[n+]1cccc(NC(=O)c2ccc(NC(=O)c3cccc(C(=O)Nc4ccc(C(=O)Nc5ccc[n+](C)c5)cc4)c3)cc2)c1.Cc1ccc(S(=O)(=O)[O-])cc1.Cc1ccc(S(=O)(=O)[O-])cc1	1.85	35 mg/kg	1.9 µM	0.9 µM	0.2	25 mg/kg		1.2 µM
COc1cc(C(=O)Nc2ccc(C(=O)Nc3ccc[n+](C)c3)cc2)ccc1C(=O)Nc1ccc(C(=O)Nc2ccc[n+](C)c2)cc1.Cc1ccc(S(=O)(=O)[O-])cc1.Cc1ccc(S(=O)(=O)[O-])cc1	1.72	18 mg/kg	1.51 µM	0.64 µM	0.23	10.3 mg/kg		0.64 µM
CCC[n+]1cccc(NC(=O)c2ccc(NC(=O)c3ccc(C(=O)Nc4ccc(C(=O)Nc5ccc[n+](CCC)c5)c(N)c4)c(N)c3)cc2N)c1.Cc1ccc(S(=O)(=O)[O-])cc1.Cc1ccc(S(=O)(=O)[O-])cc1	2.1	10 mg/kg	0.48 µM	0.26 µM	-0.51	2.2 mg/kg		0.08 µM
C[n+]1ccc(Nc2ccc(S(=O)(=O)Nc3ccc(Nc4c5ccccc5[n+](C)c5cc(N)ccc45)cc3)cc2)cc1.[O-][Cl+3]([O-])([O-])[O-].[O-][Cl+3]([O-])([O-])[O-]	2.18	35 mg/kg	0.12 µM	0.1 µM	0.57	5 mg/kg		0.07 µM
C[n+]1cccc(NC(=O)c2ccc(NC(=O)c3ccc(C(=O)Nc4ccc[n+](C)c4)cc3)cc2)c1.Cc1ccc(S(=O)(=O)[O-])cc1.Cc1ccc(S(=O)(=O)[O-])cc1	<1.4	4 mg/kg	22 µM	11.2 µM	-0.11		0.325 µM	7.7 µM
